Where “and” joins values, the source holds several entries; their conditions need not be identical. Equal entries are not always repeated. Inconclusive results and toxic doses are left out. How the source made its calls: active means survival T/C of 150% or more; inactive means T/C below 125% in these data.
Test system: CD2F1 mice, L1210 leukemia ip, survival T/C
Test: NCI In Vivo Anticancer Drug Screen. Data for tumor model L1210 Leukemia (intraperitoneal) in CD2F1 (CDF1) mice
Settings: endpoint: mean survival time, higher = longer survival
Procedure, shortened: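 In this screen, transplantable tumors were grown in mice given either the compound or its vehicle. Results were expressed as the treated measurement relative to the control measurement.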

[1] = dose: 100.0 mg/kg/injection, schedule: Q04DX003 (ip), vehicle: saline
[2] = dose: 200.0 mg/kg/injection, schedule: Q04DX003 (ip), vehicle: saline
[3] = dose: 400.0 mg/kg/injection, schedule: Q04DX003 (ip), vehicle: saline
[4] = dose: 100.0 mg/kg/injection, schedule: Q01DX001 (ip), vehicle: saline with Tween-80
[5] = dose: 200.0 mg/kg/injection, schedule: Q01DX001 (ip), vehicle: saline with Tween-80
[6] = dose: 400.0 mg/kg/injection, schedule: Q01DX001 (ip), vehicle: saline with Tween-80
[7] = dose: 100.0 mg/kg/injection, schedule: Q01DX009 (ip), vehicle: saline with Tween-80
[8] = dose: 200.0 mg/kg/injection, schedule: Q01DX009 (ip), vehicle: saline with Tween-80
[9] = dose: 25.0 mg/kg/injection, schedule: Q04DX003 (ip), vehicle: saline with Tween-80
[10] = dose: 50.0 mg/kg/injection, schedule: Q01DX009 (ip), vehicle: saline with Tween-80
[11] = dose: 50.0 mg/kg/injection, schedule: Q04DX003 (ip), vehicle: saline with Tween-80
[12] = dose: 100.0 mg/kg/injection, schedule: Q04DX003 (ip), vehicle: saline with Tween-80
[13] = dose: 200.0 mg/kg/injection, schedule: Q04DX003 (ip), vehicle: saline with Tween-80
[14] = dose: 400.0 mg/kg/injection, schedule: Q01DX009 (ip), vehicle: saline with Tween-80
[15] = dose: 400.0 mg/kg/injection, schedule: Q04DX003 (ip), vehicle: saline with Tween-80
[16] = dose: 25.0 mg/kg/injection, schedule: Q01DX009 (ip), vehicle: saline with Tween-80

Measured: T/C

CC(=O)N(CC(C)C)N=O
inactive: dose: 100.0 mg/kg/injection, schedule: Q01DX001 (ip), vehicle: saline 95 % of control | [1] 102 % of control | dose: 200.0 mg/kg/injection, schedule: Q01DX001 (ip), vehicle: saline 97 % of control | [2] 97 % of control | dose: 400.0 mg/kg/injection, schedule: Q01DX001 (ip), vehicle: saline 89 % of control | [3] 94 % of control

C=C(Br)CNC(=O)C(O)(c1ccccc1)c1ccccc1
inactive: [4] 103 % of control | [5] 87 % of control | [6] 89 % of control

Nc1ccc(S(=O)(=O)F)c(Cl)c1
inactive: [7] 97 % of control | [1] 95 % of control | [8] 100 % of control | [2] 101 % of control | [3] 95 % of control

C=C1C(=O)OC2CCCC/C=C\C12 (centres undefined)
inactive: dose: 50.0 mg/kg/injection, schedule: Q01DX009 (ip), vehicle: saline 100 % of control | dose: 100.0 mg/kg/injection, schedule: Q01DX009 (ip), vehicle: saline 102 % of control | dose: 200.0 mg/kg/injection, schedule: Q01DX009 (ip), vehicle: saline 97 % of control

N#Cc1ccccc1C#N
inactive: [9] 97 % of control

CN(CC(=O)C(C)(C)C)c1ccccc1
inactive: [1] 103 % of control | [2] 97 % of control | [3] 103 % of control

CN(C)N=Nc1ccc(NC=O)cc1
inactive: dose: 4.68 mg/kg/injection, schedule: Q01DX009 (ip), vehicle: Klucel (hydroxypropylcellulose) (HPC) 104 % of control | dose: 9.37 mg/kg/injection, schedule: Q01DX009 (ip), vehicle: Klucel (hydroxypropylcellulose) (HPC) 115 % of control and 110 % of control

CC(=O)NC(Cc1cc(I)c(OC(C)=O)c(I)c1)C(=O)O (centres undefined)
inactive: [10] 93 % of control | [11] 101 % of control | [7] 93 % of control | [12] 95 % of control | [8] 93 % of control | [13] 97 % of control

COC(=O)c1cccc(OC)c1OC
inactive: [7] 101 % of control | [12] 108 % of control | [8] 96 % of control | [13] 98 % of control | [14] 98 % of control | [15] 100 % of control

CC1=NN(c2ccccc2)C(=O)C1N=Nc1ccccc1S(=O)(=O)O (centres undefined)
inactive: [7] 103 % of control | [12] 97 % of control | [8] 97 % of control | [13] 103 % of control | [14] 101 % of control | [15] 112 % of control

O=c1[nH]c(C(F)(F)F)nc2c1nc1n2CCC1
inactive: [16] 102 % of control | [10] 111 % of control | [7] 103 % of control

C1CCN(NC2=NCCO2)CC1
inactive: dose: 6.25 mg/kg/injection, schedule: Q01DX009 (ip), vehicle: saline 101 % of control | dose: 12.5 mg/kg/injection, schedule: Q01DX009 (ip), vehicle: saline 98 % of control | dose: 25.0 mg/kg/injection, schedule: Q01DX009 (ip), vehicle: saline 98 % of control

CC1CC(C)CC(C)C(O)/C(C#N)=C/C=C/CC(C2CCCC2C(=O)O)OC(=O)CC(O)C(C)C1 (centres undefined)
inactive: dose: 1.56 mg/kg/injection, schedule: Q01DX009 (ip), vehicle: Klucel (hydroxypropylcellulose) (HPC) 105 % of control | dose: 3.13 mg/kg/injection, schedule: Q01DX009 (ip), vehicle: Klucel (hydroxypropylcellulose) (HPC) 109 % of control | dose: 6.25 mg/kg/injection, schedule: Q01DX009 (ip), vehicle: Klucel (hydroxypropylcellulose) (HPC) 89 % of control and 96 % of control

NC(=O)c1cn(C2OC(CO)C(O)C2O)nc1N (centres undefined)
inactive: dose: 100.0 mg/kg/injection, schedule: Q01DX005 (ip), vehicle: saline 100 % of control | dose: 200.0 mg/kg/injection, schedule: Q01DX005 (ip), vehicle: saline 105 % of control

COc1ccc(/C=N/NC(=S)Nc2ccccn2)cc1OC
inactive: dose: 25.0 mg/kg/injection, schedule: Q04DX002 (ip), vehicle: saline with Tween-80 92 % of control | dose: 50.0 mg/kg/injection, schedule: Q04DX002 (ip), vehicle: saline with Tween-80 92 % of control | dose: 100.0 mg/kg/injection, schedule: Q04DX002 (ip), vehicle: saline with Tween-80 88 % of control and 95 % of control

CNC(=O)OC(C)CC(O)(C(F)(F)F)C(F)(F)F (centres undefined)
inactive: [16] 97 % of control | [9] 96 % of control | [10] 101 % of control | [11] 98 % of control | [7] 98 % of control | dose: 100.0 mg/kg/injection, schedule: Q04DX003 (ip), vehicle: Klucel (hydroxypropylcellulose) (HPC) 96 % of control | [12] 98 % of control

O=C(CC(O)(C(F)(F)F)C(F)(F)F)c1cccc(C(F)(F)F)c1
inactive: [4] 90 % of control | [5] 108 % of control | [6] 103 % of control

NC(=O)c1c(N)sc2c1CCCC2
inactive: dose: 6.25 mg/kg/injection, schedule: Q01DX009 (ip), vehicle: saline with Tween-80 96 % of control | dose: 6.25 mg/kg/injection, schedule: Q04DX003 (ip), vehicle: saline with Tween-80 107 % of control | dose: 12.5 mg/kg/injection, schedule: Q01DX009 (ip), vehicle: saline with Tween-80 93 % of control | dose: 12.5 mg/kg/injection, schedule: Q04DX003 (ip), vehicle: saline with Tween-80 102 % of control | [16] 95 % of control | [9] 100 % of control

O=C(c1ccc(-c2ccccc2)cc1)C1CCCCC1
inactive: [7] 94 % of control | [8] 97 % of control | [14] 86 % of control

CC12CCC(O)CC1=CCC1C2CCC2(C)C(O)CCC12 (centres undefined)
inactive: [4] 97 % of control | [5] 90 % of control | [6] 91 % of control

CN(C)CCNC(=O)c1ccc(N)cc1
inactive: dose: 100.0 mg/kg/injection, schedule: Q04DX002 (ip), vehicle: saline 102 % of control | dose: 200.0 mg/kg/injection, schedule: Q04DX002 (ip), vehicle: saline 102 % of control

From PubChem BioAssay AID256 (DTP/NCI, 2004)
